Data set [1] concerns carrageenan- induced edema in rats. Kind of data set: Anti-inflammatory action: carrageenan-induced leg edema in rats. In kind it is in vivo, Wister male rats. Conditions: 0.3 mg/kg by the tail venous route 1 hour after carrageenan, fat emulsions, leg volume vs physiological saline groups 3 hours after carrageenan. The procedure:
Wister male rats were divided into groups of 6 rats each. 0.1 mℓ of a 1% solution of carrageenan in physiological saline was injected subcutaneously in the heel of a right hind leg for each rat to develop a leg edema. One hour after the injection of carrageenan, a drug to be tested was injected in a dosage of 0.3 mg/kg by the tail venous route. Thereafter the leg volume was measured with suitable time intervals.
The fat emulsions prepared in Preparation Examples 1 to 4 were tested. As a control drug, physiological saline was used.
The degree of the anti-inflammatory action was indicated as an inhibitory ratio in connection with the leg volume of physiological saline-administered groups 3 hours after the injection of carrageenan.
A general note: Carrageenan injected into the paw causes an acute inflammation.

Data set [2] is described as follows: Solubility in soybean oil (crystal precipitation on standing). Conditions: 200 mg dissolved in 1 mL soybean oil at 70°C, then standing at 25°C for 2 days and nights. In kind it is physicochemical. The protocol: In order to examine the solubility of the above-obtained substance in soybean oil, 200 mg of the substance was dissolved in 1 m£ of soybean oil while heating at 70°C and, thereafter, the resulting solution was allowed to stand at 25°C for 2 days and nights.

Turning to `CCCCOC(=O)COC(=O)Cc1c(C)n(C(=O)c2ccc(Cl)cc2)c2ccc(OC)cc12` [Example 1, butoxycarbonylmethyl indomethacin ester], the “Anti-inflammatory Action Edema Inhibition Ratio (%)” value in data set [1] amounted to 60%. For `CCCCCCOC(=O)COC(=O)Cc1c(C)n(C(=O)c2ccc(Cl)cc2)c2ccc(OC)cc12` [Example 2, Hexyloxycarbonylmethyl indomethacin ester], the “Anti-inflammatory Action Edema Inhibition Ratio (%)” value in data set [1] came to 62%. On to `COc1ccc2c(c1)c(CC(=O)OCOC(=O)C(C)(C)C)c(C)n2C(=O)c1ccc(Cl)cc1` [Example 3, Pivaloyloxymethyl indomethacin ester], for which the “Anti-inflammatory Action Edema Inhibition Ratio (%)” value in data set [1] came to 58%. In the case of `CCCCOC(=O)COC(=O)Cc1c(C)n(C(=O)c2ccc(F)cc2)c2ccc(OC)cc12` [Example 4, butoxycarbonylmethyl 1-(p-fluorobenzoyl)-5-methoxy-2-methylindole-3-acetate], the “solubility in soybean oil: precipitation of crystals” value in data set [2] is listed as “Precipitation of crystals was not observed at all”. Also, in data set [1], the “Anti-inflammatory Action Edema Inhibition Ratio (%)” value came to 68%.

Source of the values: EP0144845A1, “Indolylacetic acid derivatives and preparations containing same for medical treatments” (GREEN CROSS CORPORATION, priority 1983, dated 1985).
